For one assay, the target named is T1, human NK2 receptor (Homo sapiens, UniProt P21452).
T1 construct: expressed in transfected cells; host or cells: Chinese hamster ovary cells (membranes)
T1 sequence (P21452 1-398): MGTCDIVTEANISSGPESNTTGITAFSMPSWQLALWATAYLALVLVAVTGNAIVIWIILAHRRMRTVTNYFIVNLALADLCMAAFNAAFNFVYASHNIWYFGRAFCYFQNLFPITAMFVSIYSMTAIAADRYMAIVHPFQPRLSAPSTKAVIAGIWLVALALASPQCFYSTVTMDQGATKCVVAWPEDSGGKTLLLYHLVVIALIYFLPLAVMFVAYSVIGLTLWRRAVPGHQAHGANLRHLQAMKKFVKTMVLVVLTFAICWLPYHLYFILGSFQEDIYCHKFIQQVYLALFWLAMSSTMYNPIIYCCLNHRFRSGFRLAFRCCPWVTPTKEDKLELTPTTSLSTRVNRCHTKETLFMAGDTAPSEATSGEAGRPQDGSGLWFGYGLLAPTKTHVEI
Kind of assay: competition with [3H]-NKA for binding to membranes from Chinese hamster ovary cells expressing the cloned receptor. Conditions: CHO cell membranes, 90 min, 25° C. Here is the method: The affinity of the compounds of formula (I) for the human NK2 receptor can be determined in vitro by determining their ability to compete with [^3H]-NKA (neurokinin A) for binding to membranes prepared from Chinese hamster ovary cells expressing the cloned human NK2 receptor. In this method, washed Chinese hamster ovary cell membranes are prepared as described for the previous method where IM9 cells are used instead. The membranes are incubated (90 min, 25° C.) with [^3H]-NKA and with a range of concentrations of the test compound. Non-specific binding is determined in the presence of 10 μM NKA.

A further assay addresses T2, human NK1 receptor (Homo sapiens, UniProt P25103).
T2 construct: membranes prepared from the human IM9 cell line expressing the human NK1 receptor; endogenous in cells; host or cells: human IM9 cell line (membranes)
Kind of assay: inhibition of [3H]-Substance P binding to membranes from human IM9 cell line. The text has this:
The affinity of the compounds of the formula (I) for the human NK1 receptor can be determined in vitro by determining their ability to inhibit [^3H]-Substance P binding to membranes prepared from the human IM9 cell line expressing the human NK1 receptor using a modification of the method described in McLean, S. et al, J. Pharm.Exp.Ther., 267, 472-9 (1993) in which whole cells were used.

A word on the IC50: it is the concentration that inhibits the measured activity by half. A higher IC50 goes with lower potency.

T2 sequence (P25103 whole entry): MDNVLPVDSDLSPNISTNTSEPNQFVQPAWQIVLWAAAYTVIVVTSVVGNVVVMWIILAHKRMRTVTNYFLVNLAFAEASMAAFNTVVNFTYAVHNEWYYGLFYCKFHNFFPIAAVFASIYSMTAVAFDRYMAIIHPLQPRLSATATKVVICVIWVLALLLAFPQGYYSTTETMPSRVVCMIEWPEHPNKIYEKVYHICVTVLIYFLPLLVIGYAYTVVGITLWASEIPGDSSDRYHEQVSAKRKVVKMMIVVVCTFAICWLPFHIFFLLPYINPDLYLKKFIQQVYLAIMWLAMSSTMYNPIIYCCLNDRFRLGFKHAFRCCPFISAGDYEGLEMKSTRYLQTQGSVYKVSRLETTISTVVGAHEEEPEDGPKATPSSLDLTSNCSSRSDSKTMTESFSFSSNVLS

For `O=C(c1cccc2c1OCC2)c1nccn1CC(CC[N+]12CCC(c3ccccc3)(CC1)CC2)c1ccc(Cl)c(Cl)c1` (stereo not shown) [Example 5], the values for the half-inhibitory concentration (IC50) at human NK2 receptor and on human NK1 receptor were 11 nM and 8 nM, respectively.
The like results for `Cc1cccc(C(=O)c2nccn2CC(CC[N+]23CCC(c4ccccc4)(CC2)CC3)c2ccc(Cl)c(Cl)c2)c1C` (stereo not shown) [Example 2] were, in that order, 4 nM and 0.6 nM.
Consider `O=C(c1cccc2c1CCCC2)c1nccn1C[C@@H](CC[N+]12CCC(c3ccccc3)(CC1)CC2)c1ccc(Cl)c(Cl)c1` [Example 18, 4-Phenyl-1-(3(S)-[3,4-dichlorophenyl]-4-[2-(1,2,3,4-tetrahydro-5-naphthoyl)imidazol-1-yl]butyl)quinuclidinium methanesulphonate], for which the values for the half-inhibitory concentration (IC50) on human NK2 receptor and at human NK1 receptor were 3 nM and 123 nM, respectively.
Turning to `O=C(c1cccc2c1CCCC2)c1nccn1C[C@H](CC[N+]12CCC(c3ccccc3)(CC1)CC2)c1ccc(Cl)c(Cl)c1` [Example 19, 4-Phenyl-1-(3(R)-[3,4-dichlorophenyl]-4-[2-(1,2.3,4-tetrahydro-5-naphthoyl)imidazol-1-yl]butyl)quinuclidinium methanesulphonate], the IC50 was 24 nM on human NK2 receptor and 2 nM at human NK1 receptor.
The like results for `O=C(c1ccc2ccccc2c1)c1nccn1CC(CC[N+]12CCC(c3ccccc3)(CC1)CC2)c1ccc(Cl)c(Cl)c1` (stereo not shown) [Example 6] were, in that order, 96 nM and 9 nM.

Values taken from patent publication US6380396B1, “Quaternary ammonium compounds” (Pfizer Inc., priority 1997, dated 2002).
